ChEMBL document CHEMBL3734713, “4-Thiazolidinone derivatives as potent antimicrobial agents: microwave-assisted synthesis, biological evaluation and docking studies” (2015)
Values after ≈ are worked out from the molar mass of the structure shown.

Tests used:
Salmonella typhimurium = test: Antibacterial activity against Salmonella typhimurium ATCC 13311 assessed as growth inhibition after 24 hrs at 37 degC by iodonitrotetrazolium chloride staining based microdilution broth assay; format: functional, Salmonella enterica subsp. enterica serovar Typhimurium; conditions: Salmonella enterica, ATCC 13311, 24 h
Listeria monocytogenes = test: Antibacterial activity against Listeria monocytogenes NCTC 7973 assessed as growth inhibition after 24 hrs at 37 degC by iodonitrotetrazolium chloride staining based microdilution broth assay; format: functional; conditions: NCTC 7973, 24 h
Staphylococcus aureus = test: Antibacterial activity against Staphylococcus aureus ATCC 6538 assessed as growth inhibition after 24 hrs at 37 degC by iodonitrotetrazolium chloride staining based microdilution broth assay; format: functional; conditions: ATCC 6538, 24 h
Bacillus cereus = test: Antibacterial activity against clinical isolates of Bacillus cereus assessed as growth inhibition after 24 hrs at 37 degC by iodonitrotetrazolium chloride staining based microdilution broth assay; format: functional
[1] = target: Human immunodeficiency virus type 1 reverse transcriptase (Human immunodeficiency virus 1) (UniProt Q72547); test: Inhibition of HIV1 reverse transcriptase assessed as residual enzyme activity by measuring reduction in [3H]dTTP incorporation into poly(rA)-oligo(dT) at 4 uM incubated for 15 mins by scintillation counting method relative to control
Aspergillus versicolor = test: Antifungal activity against Aspergillus versicolor ATCC 11730 assessed as growth inhibition after 72 hrs at 28 degC by serial dilution method; format: functional; conditions: for MIC: Aspergillus versicolor, ATCC 11730, 72 h
Trichoderma viride = test: Antifungal activity against Trichoderma viride IAM 5061 assessed as growth inhibition after 72 hrs at 28 degC by serial dilution method; format: functional; conditions: for MIC: Trichoderma viride, IAM 5061, 72 h
Pseudomonas aeruginosa = test: Antibacterial activity against Pseudomonas aeruginosa ATCC 27853 assessed as growth inhibition after 24 hrs at 37 degC by iodonitrotetrazolium chloride staining based microdilution broth assay; format: functional; conditions: ATCC 27853, 24 h
Aspergillus niger = test: Antifungal activity against Aspergillus niger ATCC 6275 assessed as growth inhibition after 72 hrs at 28 degC by serial dilution method; format: functional; conditions: for MIC: Aspergillus niger, ATCC 6275, 72 h
Penicillium ochrochloron = test: Antifungal activity against Penicillium ochrochloron ATCC 9112 assessed as growth inhibition after 72 hrs at 28 degC by serial dilution method; format: functional; conditions: for MIC: Penicillium ochrochloron, ATCC 9112, 72 h
Escherichia coli = test: Antibacterial activity against Escherichia coli ATCC 35210 assessed as growth inhibition after 24 hrs at 37 degC by iodonitrotetrazolium chloride staining based microdilution broth assay; format: functional; conditions: ATCC 35210, 24 h
Talaromyces funiculosus = test: Antifungal activity against Penicillium funiculosum ATCC 36839 assessed as growth inhibition after 72 hrs at 28 degC by serial dilution method; format: functional; conditions: for MIC: Talaromyces funiculosus, ATCC 36839, 72 h
Aspergillus ochraceus = test: Antifungal activity against Aspergillus ochraceus ATCC 12066 assessed as growth inhibition after 72 hrs at 28 degC by serial dilution method; format: functional; conditions: for MIC: Aspergillus ochraceus, ATCC 12066, 72 h
Aspergillus fumigatus = test: Antifungal activity against Aspergillus fumigatus ATCC 1022 assessed as growth inhibition after 72 hrs at 28 degC by serial dilution method; format: functional; conditions: for MIC: Aspergillus fumigatus, ATCC 1022, 72 h
Micrococcus flavus = test: Antibacterial activity against Micrococcus flavus ATCC 10240 assessed as growth inhibition after 24 hrs at 37 degC by iodonitrotetrazolium chloride staining based microdilution broth assay; format: functional; conditions: ATCC 10240, 24 h
Candida albicans = test: Antifungal activity against Candida albicans ATCC 10231 assessed as growth inhibition after 72 hrs at 28 degC by serial dilution method; format: functional; conditions: for MIC: Candida albicans, ATCC 10231, 72 h
Enterobacter cloacae = test: Antibacterial activity against human isolate of Enterobacter cloacae assessed as growth inhibition after 24 hrs at 37 degC by iodonitrotetrazolium chloride staining based microdilution broth assay; format: functional

| SMILES | MBC (Salmonella typhimurium) [µM] | MIC (Salmonella typhimurium) [µM] | MBC (Listeria monocytogenes) [µM] | MIC (Listeria monocytogenes) [µM] | MBC (Staphylococcus aureus) [µM] | MIC (Staphylococcus aureus) [µM] | MBC (Bacillus cereus) [µM] | MIC (Bacillus cereus) [µM] | Activity [1] [%] | MFC99.5 (Aspergillus versicolor) [×10⁻² umol/ml] | MIC (Aspergillus versicolor) [µM] | MFC99.5 (Trichoderma viride) [×10⁻² umol/ml] | MIC (Trichoderma viride) [µM] | MBC (Pseudomonas aeruginosa) [µM] | MIC (Pseudomonas aeruginosa) [µM] | MFC99.5 (Aspergillus niger) [×10⁻² umol/ml] | MIC (Aspergillus niger) [µM] | MFC99.5 (Penicillium ochrochloron) [×10⁻² umol/ml] | MIC (Penicillium ochrochloron) [µM] | MBC (Escherichia coli) [µM] | further results |
| --- | --- | --- | --- | --- | --- | --- | --- | --- | --- | --- | --- | --- | --- | --- | --- | --- | --- | --- | --- | --- | --- |
| O=C1CSC(c2ccc(Br)cc2)N1c1nc(C23CC4CC(CC(C4)C2)C3)cs1 (stereo unspecified) | 420 (≈ 200 µg/mL) | 210 (≈ 99.9 µg/mL) | 630 (≈ 300 µg/mL) | 420 (≈ 200 µg/mL) | 420 (≈ 200 µg/mL) | 420 (≈ 200 µg/mL) | 210 (≈ 99.9 µg/mL) | 105 (≈ 49.9 µg/mL) | 59.9 | 10.51 | 105 (≈ 50 µg/mL) | 10.51 | 105 (≈ 50 µg/mL) | 630 (≈ 300 µg/mL) | 420 (≈ 200 µg/mL) | 31.54 | 210 (≈ 99.9 µg/mL) | 21.02 | 210 (≈ 99.9 µg/mL) | 210 (≈ 99.9 µg/mL) | MIC (Escherichia coli): 210 µM (≈ 99.9 µg/mL); MFC99.5 (Talaromyces funiculosus): 52.58 ×10⁻² umol/ml; MIC (Talaromyces funiculosus): 210 µM (≈ 99.9 µg/mL); MFC99.5 (Aspergillus ochraceus): 42.04 ×10⁻² umol/ml; MIC (Aspergillus ochraceus): 105 µM (≈ 50 µg/mL); MFC99.5 (Aspergillus fumigatus): 21.02 ×10⁻² umol/ml; MIC (Aspergillus fumigatus): 210 µM (≈ 99.9 µg/mL); MBC (Micrococcus flavus): 420 µM (≈ 200 µg/mL); MIC (Micrococcus flavus): 210 µM (≈ 99.9 µg/mL); MFC99.5 (Candida albicans): 73.6 ×10⁻² umol/ml; MIC (Candida albicans): 526 µM (≈ 250 µg/mL); MBC (Enterobacter cloacae): 420 µM (≈ 200 µg/mL); MIC (Enterobacter cloacae): 20 µM (≈ 9.51 µg/mL) |
| COc1ccc(OC)c(C2SCC(=O)N2c2nc(C34CC5CC(CC(C5)C3)C4)cs2)c1 (stereo unspecified) | 438 (≈ 200 µg/mL) | 219 (≈ 100 µg/mL) | 657 (≈ 300 µg/mL) | 438 (≈ 200 µg/mL) | 657 (≈ 300 µg/mL) | 438 (≈ 200 µg/mL) | 438 (≈ 200 µg/mL) | 219 (≈ 100 µg/mL) | 80.7 | 32.85 | 219 (≈ 100 µg/mL) | 21.9 | 219 (≈ 100 µg/mL) | 438 (≈ 200 µg/mL) | 438 (≈ 200 µg/mL) | 87.6 | 219 (≈ 100 µg/mL) | 43.8 | 219 (≈ 100 µg/mL) | 438 (≈ 200 µg/mL) | MIC (Escherichia coli): 219 µM (≈ 100 µg/mL); MFC99.5 (Talaromyces funiculosus): 43.8 ×10⁻² umol/ml; MIC (Talaromyces funiculosus): 219 µM (≈ 100 µg/mL); MFC99.5 (Aspergillus ochraceus): 32.85 ×10⁻² umol/ml; MIC (Aspergillus ochraceus): 110 µM (≈ 50 µg/mL); MFC99.5 (Aspergillus fumigatus): 32.85 ×10⁻² umol/ml; MIC (Aspergillus fumigatus): 219 µM (≈ 100 µg/mL); MBC (Micrococcus flavus): 438 µM (≈ 200 µg/mL); MIC (Micrococcus flavus): 219 µM (≈ 100 µg/mL); MFC99.5 (Candida albicans): 109.5 ×10⁻² umol/ml; MIC (Candida albicans): 876 µM (≈ 400 µg/mL); MBC (Enterobacter cloacae): 438 µM (≈ 200 µg/mL); MIC (Enterobacter cloacae): 219 µM (≈ 100 µg/mL) |
